This test is described as follows: Antagonist activity at CCR2 in human peripheral blood mononuclear cells assessed as reduction in MCP1-induced chemotaxis measured after 30 mins by calcein-AM dye based fluorescence assay.

As for `CN[C@@H]1CC[C@H](N2CC[C@H](Nc3ncnc4ccc(C(F)(F)F)cc34)C2=O)[C@H](NC(C)=O)C1`, the IC50 is 1.7 nM.

These data come from BindingDB's records for doi:10.1021/acsmedchemlett.1c00082 (Bristol Myers Squibb, 2021).
